test system: not listed separately; assay: in vivo; details: Sprague-Dawley, rat, plasma, po, 10 mg/kg

Question: With `CC1(C)C=C(c2cnc3c(c2)[C@]2(COC(N)=N2)c2cc(-c4cccnc4F)ccc2O3)CCO1` as the compound, how does the concentration at 4 h read?
Answer: 1010 nM

test system: not listed separately; assay: in vivo; details: Sprague-Dawley, rat, CSF, po, 10 mg/kg

Question: Which concentration at 4 h does the source give for `CC1(C)C=C(c2cnc3c(c2)[C@]2(COC(N)=N2)c2cc(-c4cccnc4F)ccc2O3)CCO1` here?
Answer: 5 nM

test system: not listed separately; assay: in vitro; details: pig, LLC-PK1

Question: Which Papp at 2 h does the source give for `NC1=N[C@@]2(CO1)c1cc(-c3cccnc3F)ccc1Oc1ncc(C3=CCOCC3)cc12` here?
Answer: 20 ×10⁻⁶ cm/s

Question: With `Cc1ccc(-c2cnc3c(c2)[C@]2(COC(N)=N2)c2cc(-c4cccnc4F)ccc2O3)cc1` as the compound, how does the Papp at 2 h read?
Answer: 14 ×10⁻⁶ cm/s

Question: With `CC(C)(O)C#Cc1cnc2c(c1)[C@]1(COC(N)=N1)c1cc(-c3cccnc3F)ccc1O2` as the compound, how does the Papp at 2 h read?
Answer: 11 ×10⁻⁶ cm/s

Question: With `CC(C)(C)C#Cc1cnc2c(c1)[C@]1(COC(N)=N1)c1cc(-c3cccnc3F)ccc1O2` as the compound, how does the Papp at 2 h read?
Answer: 9.5 ×10⁻⁶ cm/s

Question: Which Papp at 2 h does the source give for `NC1=N[C@@]2(CO1)c1cc(-c3cccnc3F)ccc1Oc1ncc(-c3ccnc(F)c3)cc12` here?
Answer: 15 ×10⁻⁶ cm/s

Question: For `NC1=N[C@@]2(CO1)c1cc(-c3cccnc3F)ccc1Oc1ncc(C3=CCCOC3)cc12`, which Papp at 2 h is on record?
Answer: 11 ×10⁻⁶ cm/s

Question: For `CC(C)(C)COc1cnc2c(c1)[C@]1(COC(N)=N1)c1cc(-c3cccnc3F)ccc1O2`, which Papp at 2 h is on record?
Answer: 14 ×10⁻⁶ cm/s

Question: Which Papp at 2 h does the source give for `CC(C)(C)COc1ccc2c(c1)[C@]1(COC(N)=N1)c1cc(-c3cncnc3)cnc1O2` here?
Answer: 16 ×10⁻⁶ cm/s

Question: With `CC(C)(C)COc1cnc2c(c1)[C@]1(COC(N)=N1)c1cc(-c3cccnc3)ccc1O2` as the compound, how does the Papp at 2 h read?
Answer: 11 ×10⁻⁶ cm/s

Question: With `CC(C)(C)COc1cnc2c(c1)[C@]1(COC(N)=N1)c1cc(-c3cncnc3)ccc1O2` as the compound, how does the Papp at 2 h read?
Answer: 16 ×10⁻⁶ cm/s

Question: Which Papp at 2 h does the source give for `COC(C)(C)COc1cnc2c(c1)[C@]1(COC(N)=N1)c1cc(-c3cccnc3F)ccc1O2` here?
Answer: 16 ×10⁻⁶ cm/s

Question: With `N#Cc1ccc(-c2cnc3c(c2)[C@]2(COC(N)=N2)c2cc(-c4cccnc4F)ccc2O3)cc1` as the compound, how does the Papp at 2 h read?
Answer: 16 ×10⁻⁶ cm/s

Question: For `NC1=N[C@@]2(CO1)c1cc(-c3cccnc3F)ccc1Oc1ncc(N3CCOCC3)cc12`, which Papp at 2 h is on record?
Answer: 10 ×10⁻⁶ cm/s

Question: For `CC1(C)C=C(c2cnc3c(c2)[C@]2(COC(N)=N2)c2cc(-c4cccnc4F)ccc2O3)CCO1`, which Papp at 2 h is on record?
Answer: 17 ×10⁻⁶ cm/s

Question: For `NC1=N[C@@]2(CO1)c1cc(-c3cccnc3F)ccc1Oc1ncc(C3CCOCC3)cc12`, which Papp at 2 h is on record?
Answer: 15 ×10⁻⁶ cm/s

Question: Which Papp at 2 h does the source give for `COC(C)(C)C#Cc1cnc2c(c1)[C@]1(COC(N)=N1)c1cc(-c3cccnc3F)ccc1O2` here?
Answer: 12 ×10⁻⁶ cm/s

test system: Plasma; assay: not given; details: rat, in vivo, po, 10 mg/kg, 4 h

Question: For `CC1(C)C=C(c2cnc3c(c2)[C@]2(COC(N)=N2)c2cc(-c4cccnc4F)ccc2O3)CCO1`, which “Cp(f)” value is on record?
Answer: 45 nM
